Assay results from US20250032488A1, “METHODS OF TREATMENT USING LOU064” (NOVARTIS AG, priority 2021, published 2025).
Like-named read-outs stand apart in the source and are kept apart here.

Legend:
[1] = system: FccR1 mediated basophil activation; conditions: cited from earlier work
subjects with CSU = assay: 52-week open label extension study in CSU: safety
Procedure: In a 52-week open label extension study to evaluate the long-term safety and tolerability of LOU064 in eligible subjects with CSU who participated in the Phase 2b study the dose used was 100 mg b.i.d.

[2] = system: human primary skin-derived mast cells; assay: Histamine release from skin-derived human mast cells; format: cell-based; conditions: Mast cell, n=2 donors
Procedure: Rationale and method: Skin tissue was used as a source of primary human tissue mast cells. Surgical skin discard samples were provided under informed consent and collected by the University Hospital Basel in accordance with the Swiss Human Research Act and approval of the responsible ethic committee (Ethikkommission Nordwest und Zentralschweiz). Skin tissue was dissociated and intact mast cells were prepared according to the protocol of Kulka and Metcalfe (Kulka et al. 2010, current protocols in Immunology; SUPPL. 90:1-11). The isolated mast cells were characterized phenotypically and used for a degranulation assay as described above ((Neuberger, M.S. et al. (1985), Nature 314 (6008), pp 268-70. doi: 10.1038/314268a0). The mast cells were sensitized with JW8 IgE antibody and then pre-incubated with serial compound dilutions for 30 minutes at 37° C. Then degranulation was triggered by adding haptenized NIP-BSA to crosslink the FcERI. After 30 minutes, supernatants were collected and analyzed for histamine with an HTRF-based immunoassay (Cisbio Bioassays).

C57BI6 mice = assay: Reverse passive Arthus (RPA) reaction in mouse skin: skin swelling; format: in vivo; conditions: for Inhibition of the Arthus reaction (skin swelling): dosed 2 hours prior to induction, read at 3 hours
Procedure: The effect of a single dose of LOU064 was tested in the acute mouse reverse passive Arthus (RPA) model to assess its effect on a dermal anaphylaxis reaction triggered by IgG immune complexes and mediated by FcGRIIl on mast cell.
(§1) Female C57BI6 mice (Charles River, France), 8-10 weeks of age, were used. The back of the mice was shaved 24 hours prior to the skin injections. This allowed any potential irritation of the skin to resolve. The Arthus reaction was triggered two hours after compound dosing in the dose-response study or at the timepoints noted in the time-course study. To elicit the Arthus reaction, 50 μl of PBS (control site) or polyclonal rabbit anti-ovalbumin IgG at a concentration of 30 μg in PBS (C6534, Sigma) was injected i.d. into the dorsal skin. The intradermal injection was followed immediately by an i.v. injection of 200 μl ovalbumin (20 mg/kg) in saline (05450 Fluka). Three hours after the injection of the ovalbumin the mice were killed, bled for monitoring of the compound concentration and the spleens removed for BTK occupancy measurement. The thickness of the injected control and anti-ovalbumin IgG skin sites was measured using a digital caliper, and the thickness of the anti-ovalbumin IgG injected sites minus the saline control sites were then calculated for the mice in all treatment groups.

BTK = biological target: T1, BTK (Homo sapiens, UniProt Q06187); assay: Translational PK/PD model: simulated BTK occupancy in human spleen/tissues; conditions: from prediction model of spleen BTK occupancy and HED
T1 construct: simulate BTK occupancy in human spleen/tissues across a range of doses; from tissue; host or cells: human spleen/tissues (simulated, not sampled)
T1 sequence (Q06187 whole entry): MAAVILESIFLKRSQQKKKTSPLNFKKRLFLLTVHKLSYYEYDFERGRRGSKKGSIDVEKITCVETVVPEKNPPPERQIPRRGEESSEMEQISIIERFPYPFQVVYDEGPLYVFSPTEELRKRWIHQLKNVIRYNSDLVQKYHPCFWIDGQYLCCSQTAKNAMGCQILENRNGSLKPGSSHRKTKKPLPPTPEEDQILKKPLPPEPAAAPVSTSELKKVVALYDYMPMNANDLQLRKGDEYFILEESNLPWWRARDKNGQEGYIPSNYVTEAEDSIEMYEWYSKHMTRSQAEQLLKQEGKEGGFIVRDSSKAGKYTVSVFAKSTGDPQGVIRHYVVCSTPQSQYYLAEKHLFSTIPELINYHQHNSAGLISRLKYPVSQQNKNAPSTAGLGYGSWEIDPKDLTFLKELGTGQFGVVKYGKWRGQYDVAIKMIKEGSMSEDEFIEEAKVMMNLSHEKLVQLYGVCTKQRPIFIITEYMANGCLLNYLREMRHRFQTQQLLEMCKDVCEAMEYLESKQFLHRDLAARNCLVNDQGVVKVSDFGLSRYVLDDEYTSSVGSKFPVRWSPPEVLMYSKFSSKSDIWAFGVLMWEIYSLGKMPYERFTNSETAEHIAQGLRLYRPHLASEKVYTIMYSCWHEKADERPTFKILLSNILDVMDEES
Text: The purpose of this analysis was to characterize the pharmacokinetics (PK) of LOU064 in healthy volunteers and to use a previously developed, translational target occupancy model to simulate BTK occupancy in human spleen/tissues across a range of doses and dosing regimen (B.I.D vs QD).
Pharmacokinetic data from a Phase I clinical study reported by Kaul et al. (2021) were used in the current analysis, including 102 patients.
A translational target occupancy model to simulate BTK occupancy in spleen/tissues was developed using a two-step approach.
In a first step, a population PK model was established to describe LOU064 PK data from Phase I clinical study reported by Kaul et al. (2021). In a second step, the parameter estimates from the population PK model were used in the BTK occupancy model to predict BTK occupancy in blood and spleen/tissues. Ultimately the BTK occupancy model was used to predict the BTK occupancy in spleen/tissues for different dosing regimens (QD, B.I.D) at different doses.

[3] = LOU064 levels in blood, RPA study; format: in vivo, mice
Procedure: as §1
Blood samples were taken as denoted and compound measurement was performed. Blood samples were spiked with a structurally similar internal standard mixed with acetonitrile (4 volumes) and centrifuged at ˜ 4000 rpm (4° C.). Supernatant was then transferred into a microtiter plate. An aliquot of each sample was injected into an LC-MS/MS system for determination of concentrations of the parent molecule.

patients with CSU = assay: Phase 2b trial in CSU: efficacy; format: in vivo, human; conditions: 25 mg b.i.d. regimen, 12 weeks
Procedure: In a Phase 2b, randomized, double-blind, placebo-controlled trial evaluating the efficacy and safety of remibrutinib over 12 weeks in patients inadequately controlled by H1-antihistamines, with at least moderately active CSU, patients received remibrutinib 10 mg q.d. (once daily), 35 mg q.d., 100 mg q.d., 10 mg b.i.d. (twice daily), 25 mg b.i.d., 100 mg b.i.d., or placebo (1:1:1:1:1:1:1 ratio).

healthy atopic subjects = conditions: doses of greater than or equal to 100 mg qd, MAD, across all tests; cited from earlier work
[4] = 100 mg B.I.D., N = 100, interim cut off 31 Aug. 2020
[5] = ES, 100 mg b.i.d., N = 183, median 35.14 wks, listed as remibrutinib

For C=CC(=O)N(C)CCOc1c(N)ncnc1-c1cc(F)cc(NC(=O)c2ccc(C3CC3)cc2F)c1C [LOU064, N-(3-(6-amino-5-(2-(N-methylacrylamido)ethoxy)pyrimidin-4-yl)-5-fluoro-2-methylphenyl)-4-cyclopropyl-2-fluorobenzamide], the “Trough level inhibition of CD63” value ([1]; MAD, 10 mg q.d., last day of dosing) is given as 80%, the “Inhibition of CD203c+ basophils” value ([1]; MAD, 200 mg b.i.d) is given as 67% and the “Inhibition of CD203c+ basophils” value ([1]; MAD, 400 mg q.d.) is given as 63%. The “Inhibition of blood basophil activation measured by CD63 expression” value ([1]; MAD, daily dose greater than or equal to 50 mg, day 1-12 and several days beyond) was “full inhibition”, the “Trough inhibition of CD63” value ([1]; MAD, greater than or equal to 100 mg q.d., last day of dosing) was “greater than 97%” and the “Inhibition of CD203c+ basophil activation marker” value ([1]; SAD, 200 mg cohort, at 8h) was “up to 79.4%”. The “Inhibition of basophil activation measured by CD63” value ([1]; SAD, doses of 60 mg) was > 89%, the “Inhibition of basophil activation measured by CD63” value ([1]; SAD, higher doses, 24 h post dose) was ~100% and the Death (subjects with CSU; [4]) was 0 n. The “Discontinued study due to an SAE(s)” value (subjects with CSU; [4]) was 0 n, the “Discontinued study due to any AE(s)” value (subjects with CSU; [4]) was 0 n and the “AE preferred term diarrhea” value (subjects with CSU; 100 mg b.i.d., N = 100 interim) was 4%. For the same molecule, the “AE preferred term dizziness” value (subjects with CSU; 100 mg b.i.d., N = 100 interim) was 3%, the “AE preferred term gastroenteritis” value (subjects with CSU; 100 mg b.i.d., N = 100 interim) was 3% and the “AE preferred term headache” value (subjects with CSU; 100 mg b.i.d., N = 100 interim) was 6%. For the same molecule, the “Bleeding events or events under SOC Blood and lymphatic system disorders” value (subjects with CSU; 100 mg b.i.d., N = 100 interim) was “no bleeding events”, the “SOC Infections and infestations” value (subjects with CSU; 100 mg b.i.d., N = 100 interim) was 14% and the “SOC Skin and subcutaneous tissue disorders” value (subjects with CSU; 100 mg b.i.d., N = 100 interim) was 13%. For the same molecule, the Safety signal (subjects with CSU; 100 subjects, median exposure 17.86 weeks) was “No safety signal”, the “ECG findings or QT of >500 ms” value (subjects with CSU; ES and CS, any patient) was “no significant ECG findings or QT of >500 ms” and the Deaths (subjects with CSU; ES, 100 mg b.i.d., N = 183) was “no deaths”. The “Incidence of AESI bleeding” value (subjects with CSU; ES, 100 mg b.i.d., N = 183) was 4.4%, the “Incidence of AESI cytopenias” value (subjects with CSU; ES, 100 mg b.i.d., N = 183) was 0.5% and the “Incidence of AESI infections” value (subjects with CSU; ES, 100 mg b.i.d., N = 183) was 23%. The “Skin and subcutaneous tissue disorders (AEs by primary system organ class)” value (subjects with CSU; ES, 100 mg b.i.d., N = 183, median 35.14 wks) was 32 n, the “Discontinued study treatment due to AE(s)” value (subjects with CSU; [5]) was 6 n and the “Headache (AEs by PT)” value (subjects with CSU; [5]) was 6.6%. For the same molecule, the “Infections and infestations (AEs by primary system organ class)” value (subjects with CSU; [5]) was 23.0%, the “Patients with SAE(s)” value (subjects with CSU; [5]) was 4 n and the “Skin and subcutaneous tissue disorders (AEs by primary system organ class)” value (subjects with CSU; [5]) was 17.5%. The “Patients with newly occurring isolated ALT>3xULN” value (subjects with CSU; ES, normalized within 4 weeks) was 1 patient, the IC50 [2] was 16.5 nM and the “Inhibition of skin swelling (time-course study)” value (C57BI6 mice; 30 mg/kg p.o., Arthus reaction elicited 2 hours post dosing) was 65.7%. For the same molecule, the “Inhibition of the Arthus reaction (skin swelling)” value (C57BI6 mice; 30 mg/kg single p.o.) was 73%, the “Inhibition of the Arthus reaction (skin swelling)” value (C57BI6 mice; 100 mg/kg single p.o.) was 61.2% and the “Timepoint at which pharmacologic effect in the skin returned to vehicle levels” value (C57BI6 mice; single dose 30 mg/kg p.o.) was ≤ 45 hours. For the same molecule, the “Minimal human effective dose” value (BTK) was 25 mg b.i.d, the concentration at 5 h ([3]; female, C57BI6, mouse, whole blood, oral, 3 mg/Kg single p.o., 5 hours after dosing) was 2.04 nM and the concentration at 5 h ([3]; female, C57BI6, mouse, whole blood, oral, 10 mg/Kg single p.o., 5 hours after dosing, Mean ± SD) was 2.87 ± 0.58 nM. For the same molecule, the concentration at 5 h ([3]; female, C57BI6, mouse, whole blood, oral, 30 mg/Kg single p.o., 5 hours after dosing, Mean ± SD) was 25.2 ± 20.9 nM, the concentration at 5 h ([3]; female, C57BI6, mouse, whole blood, oral, 100 mg/Kg single p.o., 5 hours after dosing, Mean ± SD) was 140 ± 63.9 nM and the concentration at 5 h ([3]; female, C57BI6, mouse, whole blood, single oral dose of 30 mg/kg, 5 hours post-dose, Mean ± SD (n = 5)) was 28.4 ± 18.2 nM. The concentration at 8 h ([3]; female, C57BI6, mouse, whole blood, single oral dose of 30 mg/kg, 8 hours post-dose, Mean ± SD (n = 5)) was 9.2 ± 6.7 nM, the Concentration in blood ([3]; single oral dose of 30 mg/kg, 19 hours post-dose) was “Below LLOQ” and the “Efficacy in CSU” value (patients with CSU) was “particularly effective”. The “Average decrease in wheal size (SPT)” value (healthy atopic subjects) was 3 mm.
